Test results taken from patent US20210254272A1, “TEXTILES HAVING ANTIMICROBIAL PROPERTIES” (Livinguard AG, priority 2015, published 2021).

Tested on: E. coli (ATCC 25922)
Assay: AATCC Test Method 100-2012 antibacterial activity of the treated textile, after 25 washes and 12 abrasion cycles, contact time 60 minutes
Format: cell-based
Settings: for Performance Test-Log reduction of antimicrobial performance: pad process, 2 min
Procedure: The antibacterial activity of the textile was tested in accordance with AATCC Test Method 100-2012. Prior to the test, the fabric was cut into coupons of 2×4 inches and washed separately 25 times, and exposed to 12 abrasion cycles, as per US EPA protocol 90072PA4 (described further below). The tests were made against E. coli (ATCC 25922). Contact time was 60 minutes, after inoculating with 10^8 CFU per coupon.

For `CCCC1COC(Cn2cncn2)(c2ccc(Cl)cc2Cl)O1` (stereo not shown) [Propiconazole, propiconazole], which “Performance Test-Log reduction of antimicrobial performance” value (“Performance Test-Log reduction” for short) (single agent 5 gm/lit, curing 180° C.) is on record?
Its value is 0.98 Log.

And the “Performance Test-Log reduction” value (single agent 10 gm/lit, curing 120° C.)?
Its value is 0.25 Log.

What about the “Performance Test-Log reduction” value (single agent 10 gm/lit, curing 140° C.) of the same molecule?
The value was 0.38 Log.

What about the “Performance Test-Log reduction” value (single agent 10 gm/lit, curing 150° C.) of the same molecule?
Its value is 0.42 Log.

What about the “Performance Test-Log reduction” value (single agent 10 gm/lit, curing 160° C.) of the same molecule?
Its value is 0.56 Log.

And the “Performance Test-Log reduction” value (single agent 10 gm/lit, curing 180° C.)?
The value was 2.11 Log.

And the “Log reduction of antimicrobial performance” value (pure cotton fabric, exhaust 80° C., 60 min, dosage 0.1% o.w.f)?
The value was 0.63 Log.

What about the “Log reduction of antimicrobial performance” value (pure cotton fabric, exhaust 80° C., 60 min, dosage 0.2% o.w.f) of the same molecule?
The value was 1.45 Log.

And the “Log reduction of antimicrobial performance” value (pure cotton fabric, exhaust 80° C., 60 min, dosage 0.5% o.w.f)?
Its value is 1.95 Log.

And the “Log reduction of antimicrobial performance” value (pure cotton fabric, exhaust 80° C., 60 min, dosage 0.8% o.w.f)?
Its value is 2.34 Log.

What about the “Log reduction of antimicrobial performance” value (pure cotton fabric, exhaust 80° C., 60 min, dosage 1.0% o.w.f) of the same molecule?
Its value is 2.85 Log.

What about the “Log reduction of antimicrobial performance” value (pure cotton, exhaust 80° C., 1% o.w.f, 60 min, curing 180° C., curing dwell time 0.5 min) of the same molecule?
Its value is 0.4 Log.

And the “Log reduction of antimicrobial performance” value (pure cotton, exhaust 80° C., 1% o.w.f, 60 min, curing 180° C., curing dwell time 1.0 min)?
The value was 0.8 Log.

What about the “Log reduction of antimicrobial performance” value (pure cotton, exhaust 80° C., 1% o.w.f, 60 min, curing 180° C., curing dwell time 1.5 min) of the same molecule?
The value was 2.2 Log.

And the “Log reduction of antimicrobial performance” value (pure cotton, exhaust 80° C., 1% o.w.f, 60 min, curing 180° C., curing dwell time 2.0 min)?
Its value is 2.8 Log.

And the “Log reduction of antimicrobial performance” value (pure cotton, exhaust 80° C., 1% o.w.f, 60 min, curing 180° C., curing dwell time 2.5 min)?
The value was 2.3 Log.

And the “Log reduction of antimicrobial performance” value (pure cotton, exhaust 80° C., 1% o.w.f, 60 min, curing 180° C., curing dwell time 3.0 min)?
Its value is 1.2 Log.

What about the “Log reduction of antimicrobial performance” value (pure polyester fabric, exhaust 80° C., 60 min, curing 180° C., curing dwell time 0.5 min) of the same molecule?
The value was 0.4 Log.

What about the “Log reduction of antimicrobial performance” value (pure polyester fabric, exhaust 80° C., 60 min, curing 180° C., curing dwell time 1.0 min) of the same molecule?
The value was 0.8 Log.

What about the “Log reduction of antimicrobial performance” value (pure polyester fabric, exhaust 80° C., 60 min, curing 180° C., curing dwell time 1.5 min) of the same molecule?
The value was 2.2 Log.

And the “Log reduction of antimicrobial performance” value (pure polyester fabric, exhaust 80° C., 60 min, curing 180° C., curing dwell time 2.0 min)?
Its value is 2.74 Log.

And the “Log reduction of antimicrobial performance” value (pure polyester fabric, exhaust 80° C., 60 min, curing 180° C., curing dwell time 2.5 min)?
The value was 2.35 Log.

And the “Log reduction of antimicrobial performance” value (pure polyester fabric, exhaust 80° C., 60 min, curing 180° C., curing dwell time 3.0 min)?
Its value is 1.2 Log.

What about the “Log reduction of antimicrobial performance” value (pure polyester fabric, exhaust 80° C., 60 min, dosage 0.1% o.w.f) of the same molecule?
Its value is 0.57 Log.

And the “Log reduction of antimicrobial performance” value (pure polyester fabric, exhaust 80° C., 60 min, dosage 0.2% o.w.f)?
The value was 1.35 Log.

What about the “Log reduction of antimicrobial performance” value (pure polyester fabric, exhaust 80° C., 60 min, dosage 0.5% o.w.f) of the same molecule?
The value was 1.67 Log.

What about the “Log reduction of antimicrobial performance” value (pure polyester fabric, exhaust 80° C., 60 min, dosage 0.8% o.w.f) of the same molecule?
The value was 2.14 Log.

And the “Log reduction of antimicrobial performance” value (pure polyester fabric, exhaust 80° C., 60 min, dosage 1.0% o.w.f)?
Its value is 2.73 Log.

What about the “Log reduction of antimicrobial performance” value (solution dosage 0.10% o.w.f, exhaust temperature 40° C., process time 60 min) of the same molecule?
The value was 0 Log.

What about the “Log reduction of antimicrobial performance” value (solution dosage 0.10% o.w.f, exhaust temperature 60° C., process time 60 min) of the same molecule?
The value was 0 Log.

What about the “Log reduction of antimicrobial performance” value (solution dosage 0.10% o.w.f, exhaust temperature 65° C., process time 60 min) of the same molecule?
Its value is 0 Log.

And the “Log reduction of antimicrobial performance” value (solution dosage 0.10% o.w.f, exhaust temperature 70° C., process time 60 min)?
Its value is 0 Log.

And the “Log reduction of antimicrobial performance” value (solution dosage 0.10% o.w.f, exhaust temperature 75° C., process time 60 min)?
Its value is 0.59 Log.

What about the “Log reduction of antimicrobial performance” value (solution dosage 0.10% o.w.f, exhaust temperature 80° C., process time 60 min) of the same molecule?
The value was 0.56 Log.

What about the “Log reduction of antimicrobial performance” value (solution dosage 0.10% o.w.f, exhaust temperature 85° C., process time 60 min) of the same molecule?
The value was 0.83 Log.

And the “Log reduction of antimicrobial performance” value (solution dosage 0.10% o.w.f, exhaust temperature 90° C., process time 60 min)?
The value was 0.83 Log.

And the “Log reduction of antimicrobial performance” value (solution dosage 0.10% o.w.f, exhaust temperature 95° C., process time 60 min)?
The value was 0.83 Log.

And the “Log reduction of antimicrobial performance” value (solution dosage 0.20% o.w.f, exhaust temperature 40° C., process time 60 min)?
The value was 0 Log.

What about the “Log reduction of antimicrobial performance” value (solution dosage 0.20% o.w.f, exhaust temperature 60° C., process time 60 min) of the same molecule?
The value was 0.08 Log.

What about the “Log reduction of antimicrobial performance” value (solution dosage 0.20% o.w.f, exhaust temperature 65° C., process time 60 min) of the same molecule?
The value was 0.09 Log.

What about the “Log reduction of antimicrobial performance” value (solution dosage 0.20% o.w.f, exhaust temperature 70° C., process time 60 min) of the same molecule?
Its value is 0.12 Log.

What about the “Log reduction of antimicrobial performance” value (solution dosage 0.20% o.w.f, exhaust temperature 75° C., process time 60 min) of the same molecule?
Its value is 0.89 Log.

What about the “Log reduction of antimicrobial performance” value (solution dosage 0.20% o.w.f, exhaust temperature 80° C., process time 60 min) of the same molecule?
The value was 1.34 Log.

And the “Log reduction of antimicrobial performance” value (solution dosage 0.20% o.w.f, exhaust temperature 85° C., process time 60 min)?
The value was 1.45 Log.

What about the “Log reduction of antimicrobial performance” value (solution dosage 0.20% o.w.f, exhaust temperature 90° C., process time 60 min) of the same molecule?
The value was 1.45 Log.

What about the “Log reduction of antimicrobial performance” value (solution dosage 0.20% o.w.f, exhaust temperature 95° C., process time 60 min) of the same molecule?
The value was 1.45 Log.

And the “Log reduction of antimicrobial performance” value (solution dosage 0.50% o.w.f, exhaust temperature 40° C., process time 60 min)?
The value was 0 Log.

What about the “Log reduction of antimicrobial performance” value (solution dosage 0.50% o.w.f, exhaust temperature 60° C., process time 60 min) of the same molecule?
The value was 0.12 Log.

And the “Log reduction of antimicrobial performance” value (solution dosage 0.50% o.w.f, exhaust temperature 65° C., process time 60 min)?
Its value is 0.13 Log.

And the “Log reduction of antimicrobial performance” value (solution dosage 0.50% o.w.f, exhaust temperature 70° C., process time 60 min)?
Its value is 0.19 Log.

And the “Log reduction of antimicrobial performance” value (solution dosage 0.50% o.w.f, exhaust temperature 75° C., process time 60 min)?
Its value is 1.12 Log.

What about the “Log reduction of antimicrobial performance” value (solution dosage 0.50% o.w.f, exhaust temperature 80° C., process time 60 min) of the same molecule?
Its value is 1.98 Log.

And the “Log reduction of antimicrobial performance” value (solution dosage 0.50% o.w.f, exhaust temperature 85° C., process time 60 min)?
The value was 2.04 Log.

And the “Log reduction of antimicrobial performance” value (solution dosage 0.50% o.w.f, exhaust temperature 90° C., process time 60 min)?
The value was 2.06 Log.

And the “Log reduction of antimicrobial performance” value (solution dosage 0.50% o.w.f, exhaust temperature 95° C., process time 60 min)?
The value was 2.06 Log.

And the “Log reduction of antimicrobial performance” value (solution dosage 0.80% o.w.f, exhaust temperature 40° C., process time 60 min)?
Its value is 0 Log.

And the “Log reduction of antimicrobial performance” value (solution dosage 0.80% o.w.f, exhaust temperature 60° C., process time 60 min)?
Its value is 0.18 Log.

What about the “Log reduction of antimicrobial performance” value (solution dosage 0.80% o.w.f, exhaust temperature 65° C., process time 60 min) of the same molecule?
Its value is 0.19 Log.

And the “Log reduction of antimicrobial performance” value (solution dosage 0.80% o.w.f, exhaust temperature 70° C., process time 60 min)?
Its value is 0.23 Log.

What about the “Log reduction of antimicrobial performance” value (solution dosage 0.80% o.w.f, exhaust temperature 75° C., process time 60 min) of the same molecule?
The value was 1.35 Log.

And the “Log reduction of antimicrobial performance” value (solution dosage 0.80% o.w.f, exhaust temperature 80° C., process time 60 min)?
Its value is 2.34 Log.

And the “Log reduction of antimicrobial performance” value (solution dosage 0.80% o.w.f, exhaust temperature 85° C., process time 60 min)?
Its value is 2.56 Log.

What about the “Log reduction of antimicrobial performance” value (solution dosage 0.80% o.w.f, exhaust temperature 90° C., process time 60 min) of the same molecule?
Its value is 2.61 Log.

And the “Log reduction of antimicrobial performance” value (solution dosage 0.80% o.w.f, exhaust temperature 95° C., process time 60 min)?
Its value is 2.61 Log.

And the “Log reduction of antimicrobial performance” value (solution dosage 1.00% o.w.f, exhaust temperature 40° C., process time 60 min)?
Its value is 0 Log.

And the “Log reduction of antimicrobial performance” value (solution dosage 1.00% o.w.f, exhaust temperature 60° C., process time 60 min)?
Its value is 0.25 Log.

And the “Log reduction of antimicrobial performance” value (solution dosage 1.00% o.w.f, exhaust temperature 65° C., process time 60 min)?
Its value is 0.26 Log.

What about the “Log reduction of antimicrobial performance” value (solution dosage 1.00% o.w.f, exhaust temperature 70° C., process time 60 min) of the same molecule?
The value was 0.32 Log.

And the “Log reduction of antimicrobial performance” value (solution dosage 1.00% o.w.f, exhaust temperature 75° C., process time 60 min)?
Its value is 1.42 Log.

And the “Log reduction of antimicrobial performance” value (solution dosage 1.00% o.w.f, exhaust temperature 80° C., process time 60 min)?
Its value is 2.87 Log.

What about the “Log reduction of antimicrobial performance” value (solution dosage 1.00% o.w.f, exhaust temperature 85° C., process time 60 min) of the same molecule?
Its value is 2.89 Log.

What about the “Log reduction of antimicrobial performance” value (solution dosage 1.00% o.w.f, exhaust temperature 90° C., process time 60 min) of the same molecule?
Its value is 2.91 Log.

What about the “Log reduction of antimicrobial performance” value (solution dosage 1.00% o.w.f, exhaust temperature 95° C., process time 60 min) of the same molecule?
Its value is 2.91 Log.
